From patent publication US7420051B2, “Synthetic process for the manufacture of an ecteinaschidin compound” (Pharma Mar, S.A., priority 2000, dated 2008)

Legend:
Type in all cases: cell-based
[1] = system: P-388 (suspension culture of a lymphoid neoplasm from DBA/2 mouse); experiment: Cytotoxic activity screening, P-388 cells; conditions: three days of incubation, approximate IC50
Description: (§1) Cell Cultures. Cells were maintained in logarithmic phase of growth in Eagle's Minimum Essential Medium, with Earle's Balanced Salts, with 2.0 mM L-glutamine, with non-essential amino acids, without sodium bicarbonate (EMEM/neaa); supplemented with 10% Fetal Calf Serum (FCS), 10^−2 M sodium bicarbonate and 0.1 g/l penicillin-G+streptomycin sulfate.
(§2) A simple screening procedure has been carried out to determine and compare the antitumour activity of these compounds, using an adapted form of the method described by Bergeron et al (1984). The tumour cell line employed have been P-388 (suspension culture of a lymphoid neoplasm from DBA/2 mouse), A-549 (monolayer culture of a human lung carcinoma), HT-29 (monolayer culture of a human colon carcinoma) and MEL-28 (monolayer culture of a human melanoma).
P-388 cell were seeded into 16 mm wells at 1×10^4 cells per well in 1 ml aliquots of MEM 5FCS containing the indicated concentration of drug. A separate set of cultures without drug was seeded as control growth to ensure that cells remained in exponential phase of growth. All determinations were carried out in duplicate.

[2] = system: HT-29 (monolayer culture of a human colon carcinoma); experiment: Cytotoxic activity screening, HT-29 cells; conditions: three days of incubation, Crystal Violet, approximate IC50
Description: as §1, §2
(§3) A-549, HT-29 and MEL-28 were seeded into 16 mm wells at 2×10^4 cells per well in 1 ml aliquots of MEM 10FCS containing the indicated concentration of drug. A separate set of cultures without drug was seeded as control growth to ensure that cells remained in exponential phase of growth. All determinations were carried out in duplicate. After three days of incubation at 37° C., 10% CO2 in a 98% humid atmosphere, the wells were stained with 0.1% Crystal Violet. An approximately IC50 was determined by comparing the growth in wells with drug to the growth in wells control.

[3] = system: A-549 (monolayer culture of a human lung carcinoma); experiment: Cytotoxic activity screening, A-549 cells; conditions: three days of incubation, Crystal Violet, approximate IC50
Description: as §1, §2, §3

[4] = system: MEL-28 (monolayer culture of a human melanoma); experiment: Cytotoxic activity screening, MEL-28 cells; conditions: SK-MEL-28, 72 h, three days of incubation, Crystal Violet, approximate IC50
Description: as §1, §2, §3

DU-145 = experiment: Cytotoxic activity screening, DU-145 cells
[5] = Homo sapiens, DU-145, DU-145 cells

Compound | IC50 ([1]; Mus musculus, P388, 72 h) | IC50 ([2]; Homo sapiens, HT-29, 72 h) | IC50 ([3]; Homo sapiens, A549, 72 h) | IC50 [4] | IC50 (DU-145; [5]) | IC50 [1] | IC50 [2] | IC50 [3] | IC50 (DU-145; DU-145 cells)
COCOc1c(OC)c(C)cc2c1[C@@H]1C3Cc4c(OC(C)=O)c(C)c5c(c4[C@H](CNC(C)=O)N3[C@@H](C#N)[C@H](C2)N1C)OCO5 (stereo partly shown) | 0.016 µM | 0.016 µM | 0.016 µM | 0.016 µM | 0.016 µM |  |  |  | 
CCCC(=O)NC[C@H]1c2c(c(OC(C)=O)c(C)c3c2OCO3)CC2[C@H]3c4c(cc(C)c(OC)c4O)C[C@@H]([C@H](C#N)N21)N3C (stereo partly shown) | 0.0001 µM | 0.0001 µM | 0.0005 µM | 0.0001 µM | 0.0005 µM |  |  |  | 
C=CCOc1c(C)c2c(c3c1CC1[C@H]4c5c(cc(C)c(OC)c5OCOC)C[C@@H]([C@H](C#N)N1[C@H]3CN)N4C)OCO2 (stereo partly shown) [drawing 81] |  |  |  | 0.2 µM |  | 0.2 µM | 0.2 µM | 0.2 µM | 0.2 µM
COc1c(C)cc2c(c1O)[C@@H]1C3Cc4c(OC(C)=O)c(C)c5c(c4[C@H](CNC(=O)CC(C)C)N3[C@@H](C#N)[C@H](C2)N1C)OCO5 (stereo partly shown) | 0.0008 µM |  | 0.001 µM | 0.0008 µM | 0.001 µM |  |  |  | 
COc1c(C)cc2c(c1O)[C@@H]1C3Cc4c(OC(C)=O)c(C)c5c(c4[C@H](CNC(=O)[C@@H](C)NC(=O)CC(C)C)N3[C@@H](C#N)[C@H](C2)N1C)OCO5 (stereo partly shown) | 0.0001 µM | 0.0001 µM | 0.0001 µM | 0.0001 µM | 0.0001 µM |  |  |  | 
CCCC(=O)N[C@H](C)C(=O)NC[C@H]1c2c(c(OC(C)=O)c(C)c3c2OCO3)CC2[C@H]3c4c(cc(C)c(OC)c4O)C[C@@H]([C@H](C#N)N21)N3C (stereo partly shown) | 0.001 µM | 0.0005 µM | 0.001 µM | 0.0005 µM | 0.001 µM |  |  |  | 
COc1c(C)cc2c(c1O)[C@@H]1C3Cc4c(OC(C)=O)c(C)c5c(c4[C@H](CNC(C)=O)N3[C@@H](C#N)[C@H](C2)N1C)OCO5 (stereo partly shown) | 0.001 µM | 0.001 µM | 0.001 µM | 0.001 µM | 0.001 µM |  |  |  | 
C=CCOc1c(C)c2c(c3c1CC1[C@H]4c5c(cc(C)c(OC)c5O)C[C@@H]([C@H](C#N)N1[C@H]3CO)N4C)OCO2 (stereo partly shown) | 0.19 µM | 0.19 µM | 0.19 µM | 0.19 µM |  |  |  |  | 
COc1c(C)cc2c(c1O)[C@@H]1C3Cc4c(O)c(C)c5c(c4[C@H](CNC(=O)[C@H](C)N)N3[C@@H](C#N)[C@H](C2)N1C)OCO5 (stereo partly shown) | 0.18 µM | 0.18 µM | 0.9 µM | 0.8 µM | 0.9 µM |  |  |  | 
COc1c(C)cc2c(c1O)[C@@H]1C3Cc4c(OC(C)=O)c(C)c5c(c4[C@H](CNC(=O)[C@H](C)NC(=S)Nc4ccccc4)N3[C@@H](C#N)[C@H](C2)N1C)OCO5 (stereo partly shown) | 0.001 µM | 0.001 µM | 0.001 µM | 0.001 µM | 0.001 µM |  |  |  | 
C/C=C(\OC(C)=O)C1=C(C2=COCO2)[C@H](CNC(=O)CCCC)N2C(C1)[C@H]1c3c(cc(C)c(OC)c3O)C[C@@H]([C@@H]2C#N)N1C (stereo partly shown) | 0.007 µM | 0.007 µM | 0.007 µM | 0.007 µM | 0.007 µM |  |  |  | 
COCOc1c(OC)c(C)cc2c1[C@@H]1C3Cc4c(O)c(C)c5c(c4[C@H](CNC(C)=O)N3[C@@H](C#N)[C@H](C2)N1C)OCO5 (stereo partly shown) | > 1.77 µM | > 1.77 µM | > 1.77 µM | > 1.77 µM | > 1.77 µM |  |  |  | 
C=CCOc1c(C)c2c(c3c1CC1[C@H]4c5c(cc(C)c(OC)c5O)C[C@@H]([C@H](C#N)N1[C@H]3CNC(=O)[C@H](C)NC(=O)C(F)(F)F)N4C)OCO2 (stereo partly shown) | 0.001 µM | 0.001 µM | 0.001 µM | 0.001 µM | 0.001 µM |  |  |  | 
COCOc1c(OC)c(C)cc2c1[C@@H]1C3Cc4c(OC(C)=O)c(C)c5c(c4[C@H](CNC(=O)[C@H](C)NC(=O)OC(C)(C)C)N3[C@@H](C#N)[C@H](C2)N1C)OCO5 (stereo partly shown) | 0.13 µM | 0.13 µM | 0.13 µM | 0.13 µM | 0.13 µM |  |  |  | 
C=CCOc1c(C)c2c(c3c1CC1[C@H]4c5c(cc(C)c(OC)c5OCOC)C[C@@H]([C@H](C#N)N1[C@H]3CNC(C)=O)N4C)OCO2 (stereo partly shown) | > 1.65 µM | > 1.65 µM | > 1.65 µM | > 1.65 µM | > 1.65 µM |  |  |  | 
COc1c(C)cc2c(c1O)[C@@H]1C3Cc4c(OC(C)=O)c(C)c5c(c4[C@H](CNC(=O)[C@H](C)NC(=O)C(F)(F)F)N3[C@@H](O)[C@H](C2)N1C)OCO5 (stereo partly shown) | 0.0001 µM | 0.0001 µM | 0.0001 µM | 0.0001 µM | 0.0001 µM |  |  |  | 
COc1c(C)cc2c(c1O)[C@@H]1C3[C@@H]4SCC(=O)C(=O)OC[C@@H](c5c6c(c(C)c(OC(C)=O)c54)OCO6)N3[C@@H](C#N)[C@H](C2)N1C (stereo partly shown) | 0.01 µM | 0.01 µM | 0.01 µM | 0.01 µM |  |  |  |  | 
COc1c(C)cc2c(c1O)[C@@H]1C3Cc4c(OC(C)=O)c(C)c5c(c4[C@H](CNC(=O)/C=C/c4cccc(C(F)(F)F)c4)N3[C@@H](O)[C@H](C2)N1C)OCO5 (stereo partly shown) | 0.0001 µM | 0.0001 µM | 0.0001 µM | 0.0001 µM | 0.0001 µM |  |  |  | 
COc1c(C)cc2c(c1O)[C@@H]1C3Cc4c(OC(C)=O)c(C)c5c(c4[C@H](CNC(=O)[C@H](C)NC(=O)C(F)(F)F)N3[C@@H](C#N)[C@H](C2)N1C)OCO5 (stereo partly shown) | 0.0001 µM | 0.0001 µM | 0.0001 µM | 0.0001 µM | 0.0001 µM |  |  |  | 
COc1c(C)cc2c(c1O)[C@@H]1C3Cc4c(OC(C)=O)c(C)c5c(c4[C@H](CN)N3[C@@H](C#N)[C@H](C2)N1C)OCO5 (stereo partly shown) | 0.01 µM | 0.01 µM | 0.01 µM | 0.01 µM | 0.01 µM |  |  |  | 
C=CCOc1c(C)c2c(c3c1CC1[C@H]4c5c(cc(C)c(OC)c5O)C[C@@H]([C@H](C#N)N1[C@H]3CN)N4C)OCO2 (stereo partly shown) | 0.019 µM | 0.019 µM | 0.019 µM | 0.019 µM |  |  |  |  | 
COc1c(C)cc2c(c1O)[C@@H]1C3Cc4c(OC(C)=O)c(C)c5c(c4[C@H](CNC(=O)[C@@H](C)NC(=O)/C=C/c4cccc(C(F)(F)F)c4)N3[C@@H](C#N)[C@H](C2)N1C)OCO5 (stereo partly shown) | 0.001 µM | 0.001 µM | 0.001 µM | 0.001 µM | 0.001 µM |  |  |  | 
COc1c(C)cc2c(c1O)[C@@H]1C3Cc4c(OC(C)=O)c(C)c5c(c4[C@H](CNC(=O)[C@H](C)NC(=O)CCCl)N3[C@@H](C#N)[C@H](C2)N1C)OCO5 (stereo partly shown) | 0.001 µM | 0.001 µM | 0.001 µM | 0.001 µM | 0.001 µM |  |  |  | 
COc1c(C)cc2c(c1O)[C@@H]1C3Cc4c(O)c(C)c5c(c4[C@H](CNC(=O)[C@H](C)NC(=S)Nc4ccccc4)N3[C@@H](C#N)[C@H](C2)N1C)OCO5 (stereo partly shown) | 0.14 µM | 0.14 µM | 0.14 µM | 0.14 µM | 0.14 µM |  |  |  | 
C/C=C(\OC(C)=O)C1=C(C2=COCO2)[C@H](CNC(=O)/C=C/c2ccccc2)N2C(C1)[C@H]1c3c(cc(C)c(OC)c3O)C[C@@H]([C@@H]2C#N)N1C (stereo partly shown) | 0.0001 µM | 0.0001 µM | 0.0001 µM | 0.0001 µM | 0.0001 µM |  |  |  | 
